{"source": "patent US11472771B2", "about": "“Process for making amino diaryl ethers and amino diaryl ethers hydrochloride salts” (CELLESTIA BIOTECH AG, priority 2018, dated 2022)", "assay_type_in_all_cases": "physicochemical", "key": {"[1]": {"assay": "Accelerated stability study, storage 40° C., 75% rh", "conditions": "6 months stability studies", "method": "(§1) For 6-(4-(tert-butyl)phenoxy)pyridin-3-amine monohydrochloride two different types of stability studies were performed including short-term and long-term stability studies, respectively, at 25° C. (RH, 60%), −5° C. and −20° C. for 36 months and an accelerated study at 40° C. (RH, 75%) over 6 months. In terms of analytical determinations six tests were involved including appearance, assay free base mean and purity mean, water, IR and XRPD. Appearance was determined by visual inspection. The product should be a white or off-white powder. Water content was determined according to USP <921> coulometric method. Identification of 6-(4-(tert-butyl)phenoxy)pyridin-3-amine monohydrochloride by IR spectroscopy was done according to USP <197>, comparing the spectrum obtained to that of the reference standard. X-Ray powder diffraction (XRPD) was performed according to USP <941> against the reference XRPD spectrum. Purity and assay of free base was done by HPLC-UV. Two methods were used. Mobile phases in the first method were water and acetonitrile. Mobile phases in the second method were water (0.5 mL of trifluoroacetic acid was added to 1000 mL of water) and acetonitrile (0.4 mL of trifluoroacetic acid was added to 1000 mL of acetonitrile). Equipment and chromatographic conditions for identification and determination of purity and assay of the 6-(4-(tert-butyl)phenoxy)pyridin-3-amine monohydrochloride by HPLC-UV according to the first method and the second method, respectively, are shown in Tables 5 and 6. [table] [table]"}, "[2]": {"assay": "Stability study, storage 25° C., 60% rh", "method": "as §1"}, "[3]": {"assay": "Forced degradation: solid state stressed by UV/VIS radiation", "method": "Instrumentation: • Light stability chamber: Solarbox 1500e • Oven: Salvis Vacuum drying oven VC-20 • Heating unit: Ikamag RET-GS with IKA ETS SD and stainless steel heating block • Vials: Supelco V-Vials and screw caps with PTFE septa • Gas tight vials: Agilent 10 mL HS-GC clear glass vials and crimp caps with Not applicable PTFE septa • Quartz glass cuvette: Hellma precision cuvette Suprasil, Type 117.100-QS, 10 mm path length, screw capped with silicone septa • HPLC: As described above\nThe HPLC test method described above was used to determine the assay and purity of 6-(4-(tert-butyl)phenoxy)pyridin-3-amine monohydrochloride before the forced degradation experiments and the area % content of individual impurities and degradation products in the 6-(4-(tert-butyl)phenoxy)pyridin-3-amine monohydrochloride samples obtained from the degradation experiments.\nThe assay and the purity of 6-(4-(tert-butyl)phenoxy)pyridin-3-amine monohydrochloride were determined using HPLC with UV detection at 220 nm utilizing the area normalization methodology for purity determination and external standard calibration for assay determination. During all experiments the UV spectra from 200 nm to 950 nm have been recorded and also the peak purity of 6-(4-(tert-butyl)phenoxy)pyridin-3-amine monohydrochloride was assessed.\nTwo samples of 20.23 mg and 20.17 mg of 6-(4-(tert-butyl)phenoxy)pyridin-3-amine monohydrochloride were weighed each into a quartz glass cuvette. Both cuvettes were closed with the screw cap. One of the cuvettes was protected by wrapping it in aluminium foil. This sample served as dark control. Both cuvettes were placed alongside each other in the light stability chamber and were then exposed in accordance to guideline to UV/VIS radiation applying energy of 500 W/m^2 until a total illumination of 1200 kLux·h was reached. After exposure to the UV/VIS radiation for an illumination of 1200 kLux·h the sample was brought to room temperature and the content of the cuvette was dissolved in about 2 mL of the sample solvent (acetonitrile/water 3:1 v/v). The obtained solution was quantitatively transferred into a 25 mL volumetric flask. Then the cuvette was rinsed five times with about 2 mL sample solvent, whereupon each time the content of the cuvette was also transferred into the 25 mL volumetric flask. After the flask was filled up to volume with the sample solvent and was shaken well, an aliquot of this solution was transferred into a HPLC vial for analysis. Result: In solid state 6-(4-(tert-butyl)phenoxy)pyridin-3-amine monohydrochloride is stable against UV/VIS radiation. After an illumination of 1200 kLux·h, applying an energy of 500 W/m^2, the purity decreased by 0.6 area % which was mainly related to the occurrence of two unknown impurities."}, "[4]": {"assay": "Stability study, storage −20° C.", "method": "as §1"}, "[5]": {"conditions": "6 months stability studies, 25° C., 60% rh, 3 mths"}, "[6]": {"conditions": "6 months stability studies, 25° C., 60% rh, 6 mths"}, "[7]": {"conditions": "6 months stability studies, 25° C., 60% rh, Release data"}, "[8]": {"conditions": "36 months stability studies, 25° C. 60% rh, 6 mths"}, "[9]": {"conditions": "36 months stability studies, 25° C. 60% rh, 9 mths"}, "[10]": {"conditions": "36 months stability studies, 25° C. 60% rh, 12 mths"}, "[11]": {"conditions": "36 months stability studies, 25° C. 60% rh, 18 mths"}, "[12]": {"conditions": "36 months stability studies, 25° C. 60% rh, 24 mths"}, "[13]": {"conditions": "solid state, illumination of 1200 kLux·h, 500 W/m^2"}, "[14]": {"conditions": "6 months stability studies, 3 mths"}, "[15]": {"conditions": "6 months stability studies, 6 mths"}, "[16]": {"conditions": "6 months stability studies, Release data"}, "[17]": {"conditions": "36 months stability studies, 6 mths"}, "[18]": {"conditions": "36 months stability studies, 9 mths"}, "[19]": {"conditions": "36 months stability studies, 12 mths"}, "[20]": {"conditions": "36 months stability studies, 18 mths"}, "[21]": {"conditions": "36 months stability studies, 24 mths"}}}
{"molecule": "CC(C)(C)c1ccc(Oc2ccc(N)cn2)cc1.Cl", "note": "[6-(4-(tert-butyl)phenoxy)pyridin-3-amine monohydrochloride]", "values": [{"measurement": "Assay free base, mean", "setting": "[1]; 3 mths", "result": 89.2, "unit": "% m/m"}, {"measurement": "IR, conforms to reference", "setting": "[1]; 3 mths", "result": "complies"}, {"measurement": "Purity, mean", "setting": "[1]; 3 mths", "result": 99.6, "unit": "% area"}, {"measurement": "Water", "setting": "[1]; 3 mths", "result": 0.01, "unit": "% m/m"}, {"measurement": "Assay free base, mean", "setting": "[1]; 6 mths", "result": 87.4, "unit": "% m/m"}, {"measurement": "IR, conforms to reference", "setting": "[1]; 6 mths", "result": "complies"}, {"measurement": "Purity, mean", "setting": "[1]; 6 mths", "result": 98.9, "unit": "% area"}, {"measurement": "Water", "setting": "[1]; 6 mths", "result": 0.02, "unit": "% m/m"}, {"measurement": "XRPD, conforms to reference", "setting": "[1]; 6 mths", "result": "complies"}, {"measurement": "Assay free base, mean", "setting": "[1]; Release data", "result": 87.0, "unit": "% m/m"}, {"measurement": "IR, conforms to reference", "setting": "[1]; Release data", "result": "complies"}, {"measurement": "Purity, mean", "setting": "[1]; Release data", "result": 99.2, "unit": "% area"}, {"measurement": "Water", "setting": "[1]; Release data", "result": 0.02, "unit": "% m/m"}, {"measurement": "Assay free base, mean", "setting": "[2]; [5]", "result": 88.8, "unit": "% m/m"}, {"measurement": "IR, conforms to reference", "setting": "[2]; [5]", "result": "complies"}, {"measurement": "Purity, mean", "setting": "[2]; [5]", "result": 99.5, "unit": "% area"}, {"measurement": "Water", "setting": "[2]; [5]", "result": 0.01, "unit": "% m/m"}, {"measurement": "Assay free base, mean", "setting": "[2]; [6]", "result": 87.2, "unit": "% m/m"}, {"measurement": "IR, conforms to reference", "setting": "[2]; [6]", "result": "complies"}, {"measurement": "Purity, mean", "setting": "[2]; [6]", "result": 98.8, "unit": "% area"}, {"measurement": "Water", "setting": "[2]; [6]", "result": 0.01, "unit": "% m/m"}, {"measurement": "Assay free base, mean", "setting": "[2]; [7]", "result": 87.0, "unit": "% m/m"}, {"measurement": "IR, conforms to reference", "setting": "[2]; [7]", "result": "complies"}, {"measurement": "Purity, mean", "setting": "[2]; [7]", "result": 99.2, "unit": "% area"}, {"measurement": "Water", "setting": "[2]; [7]", "result": 0.02, "unit": "% m/m"}, {"measurement": "Water", "setting": "[2]; 36 months stability studies, 25° C. 60% rh, 3 mths", "result": 0.01, "unit": "% m/m"}, {"measurement": "Assay free base, mean", "setting": "[2]; [8]", "result": 88.6, "unit": "% m/m"}, {"measurement": "Purity, mean", "setting": "[2]; [8]", "result": 100.0, "unit": "% area"}, {"measurement": "Water", "setting": "[2]; [8]", "result": 0.01, "unit": "% m/m"}, {"measurement": "Assay free base, mean", "setting": "[2]; [9]", "result": 88.0, "unit": "% m/m"}, {"measurement": "Purity, mean", "setting": "[2]; [9]", "result": 100.0, "unit": "% area"}, {"measurement": "Water", "setting": "[2]; [9]", "result": 0.02, "unit": "% m/m"}, {"measurement": "Assay free base, mean", "setting": "[2]; [10]", "result": 86.9, "unit": "% m/m"}, {"measurement": "Purity, mean", "setting": "[2]; [10]", "result": 100.0, "unit": "% area"}, {"measurement": "Water", "setting": "[2]; [10]", "result": 0.02, "unit": "% m/m"}, {"measurement": "Assay free base, mean", "setting": "[2]; [11]", "result": 87.7, "unit": "% m/m"}, {"measurement": "Purity, mean", "setting": "[2]; [11]", "result": 100.0, "unit": "% area"}, {"measurement": "Water", "setting": "[2]; [11]", "result": 0.02, "unit": "% m/m"}, {"measurement": "Assay free base, mean", "setting": "[2]; [12]", "result": 87.6, "unit": "% m/m"}, {"measurement": "Water", "setting": "[2]; [12]", "result": 0.02, "unit": "% m/m"}, {"measurement": "Purity, mean", "setting": "[2]; 36 months stability studies, 25° C. 60% rh, 24 mths, monohydrochloride", "result": 100, "unit": "% area"}, {"measurement": "Water", "setting": "[2]; 36 months stability studies, 25° C. 60% rh, Release data", "result": 0.02, "unit": "% m/m"}, {"measurement": "decrease in the assay", "setting": "[3]; dark control (cuvette wrapped in aluminium foil) in the light stability chamber", "result": 2.4, "unit": "% w/w"}, {"measurement": "stability against UV/VIS radiation", "setting": "[3]; solid state", "result": "stable"}, {"measurement": "decrease in the assay", "setting": "[3]; [13]", "result": 2.1, "unit": "% w/w"}, {"measurement": "purity decrease", "setting": "[3]; [13]", "result": 0.6, "unit": "area %"}, {"measurement": "Assay free base, mean", "setting": "[4]; [14]", "result": 86.1, "unit": "% m/m"}, {"measurement": "IR, conforms to reference", "setting": "[4]; [14]", "result": "complies"}, {"measurement": "Purity, mean", "setting": "[4]; [14]", "result": 99, "unit": "% area"}, {"measurement": "Water", "setting": "[4]; [14]", "result": 0.02, "unit": "% m/m"}, {"measurement": "Assay free base, mean", "setting": "[4]; [15]", "result": 87.3, "unit": "% m/m"}, {"measurement": "IR, conforms to reference", "setting": "[4]; [15]", "result": "complies"}, {"measurement": "Purity, mean", "setting": "[4]; [15]", "result": 99, "unit": "% area"}, {"measurement": "Water", "setting": "[4]; [15]", "result": 0.02, "unit": "% m/m"}, {"measurement": "Assay free base, mean", "setting": "[4]; [16]", "result": 89.4, "unit": "% m/m"}, {"measurement": "IR, conforms to reference", "setting": "[4]; [16]", "result": "complies"}, {"measurement": "Purity, mean", "setting": "[4]; [16]", "result": 100, "unit": "% area"}, {"measurement": "Water", "setting": "[4]; [16]", "result": 0.01, "unit": "% m/m"}, {"measurement": "Water", "setting": "[4]; 36 months stability studies, 3 mths", "result": 0.02, "unit": "% m/m"}, {"measurement": "Assay free base, mean", "setting": "[4]; [17]", "result": 87.4, "unit": "% m/m"}, {"measurement": "Purity, mean", "setting": "[4]; [17]", "result": 100.0, "unit": "% area"}, {"measurement": "Water", "setting": "[4]; [17]", "result": 0.02, "unit": "% m/m"}, {"measurement": "Assay free base, mean", "setting": "[4]; [18]", "result": 88.6, "unit": "% m/m"}, {"measurement": "Purity, mean", "setting": "[4]; [18]", "result": 100.0, "unit": "% area"}, {"measurement": "Water", "setting": "[4]; [18]", "result": 0.03, "unit": "% m/m"}, {"measurement": "Assay free base, mean", "setting": "[4]; [19]", "result": 87.5, "unit": "% m/m"}, {"measurement": "Purity, mean", "setting": "[4]; [19]", "result": 100.0, "unit": "% area"}, {"measurement": "Water", "setting": "[4]; [19]", "result": 0.02, "unit": "% m/m"}, {"measurement": "Assay free base, mean", "setting": "[4]; [20]", "result": 87.4, "unit": "% m/m"}, {"measurement": "Purity, mean", "setting": "[4]; [20]", "result": 100.0, "unit": "% area"}, {"measurement": "Water", "setting": "[4]; [20]", "result": 0.01, "unit": "% m/m"}, {"measurement": "Assay free base, mean", "setting": "[4]; [21]", "result": 87.4, "unit": "% m/m"}, {"measurement": "Purity, mean", "setting": "[4]; [21]", "result": 100.0, "unit": "% area"}, {"measurement": "Water", "setting": "[4]; [21]", "result": 0.02, "unit": "% m/m"}, {"measurement": "Water", "setting": "[4]; 36 months stability studies, Release data", "result": 0.01, "unit": "% m/m"}]}
